Reference: patent publication US9126952B2, “Morpholinylquinazolines” (Merck Patent GmbH, priority 2010, dated 2015)

Target: DNA-PK (Homo sapiens (Human), UniProt P78527)
Assay: DNA-PK/biochemical assay (FlashPlate kinase assay)
Conditions: 5 μM ATP, 90 min, room temperature; read-out: Binding DNA-PK IC50
Protocol: […] To this end, 1.5 μg of the DNA-PK/protein complex and 100 ng of biotinylated substrate, such as, for example, PESQEAFADLWKK biotin-NH2 (“biotin-DNA-PK peptide”), in a total volume of 36.5 μl (34.25 mM HEPES/KOH, 7.85 mM Tris-HCl, 68.5 mM KCl, 5 μM ATP, 6.85 mM MgCl2, 0.5 mM EDTA, 0.14 mM EGTA, 0.69 mM DTT, pH 7.4), were incubated at room temperature for 90 min with 500 ng of DNA from calf thymus, 0.1 μCi of 33P-ATP and 1.8% of DMSO per well with or without the test compound. The reaction was stopped using 50 μl/well of 200 mM EDTA. After incubation for a further 30 min at room temperature, the liquid was removed. Each well was washed three times with 100 μl of 0.9% sodium chloride solution. A non-specific reaction (blank value) was determined using 10 μM of a proprietary kinase inhibitor. The radioactivity measurement was carried out by means of a TopCount. IC50 values were calculated in RS1. • Literature: Kashishian et al. (2003) Molecular Cancer Therapeutics 1257.

## c1nc(N2CCCCC2)c2ccc(N3CCOCC3)cc2n1 [compound 1, 7-Morpholin-4-yl-4-piperidin-1-yl-quinazoline]
  IC50: < 100 nM

## Clc1nc(N2CCCCC2)c2ccc(N3CCOCC3)cc2n1 [compound 2]
  IC50: < 100 nM

## COc1ccc(C2CCCN(c3ncnc4cc(N5CCOCC5)ccc34)C2)cc1 (stereo not shown) [compound 3, 4-[3-(4-Methoxy-phenyl)piperidin-1-yl]-7-morpholin-4-yl-quinazoline]
  IC50: 100 to 500 nM

## c1ccc(C2CCCN(c3ncnc4cc(N5CCOCC5)ccc34)C2)cc1 (stereo not shown) [compound 4, 7-Morpholin-4-yl-4-(3-phenylpiperidin-1-yl)quinazoline]
  IC50: < 100 nM

## c1ccc([C@@H]2CCCN(c3ncnc4cc(N5CCOCC5)ccc34)C2)cc1 [compound 5, 7-Morpholin-4-yl-4-((S)-3-phenyl-piperidin-1-yl)-quinazoline]
  IC50: 100 to 500 nM

## c1ccc([C@H]2CCCN(c3ncnc4cc(N5CCOCC5)ccc34)C2)cc1 [compound 6, 7-Morpholin-4-yl-4-((R)-3-phenyl-piperidin-1-yl)-quinazoline]
  IC50: < 100 nM

## c1nc(N2CCCC2)c2ccc(N3CCOCC3)cc2n1 [compound 7, 7-Morpholin-4-yl-4 pyrrolidin-1-yl-quinazoline]
  IC50: 100 to 500 nM

## c1nc(N2CCCCCC2)c2ccc(N3CCOCC3)cc2n1 [compound 8, 4-Azepan-1-yl-7-morpholin-4-yl-quinazoline]
  IC50: 100 to 500 nM

## Fc1ccc2[nH]cc(C3CCCN(c4ncnc5cc(N6CCOCC6)ccc45)C3)c2c1 (stereo not shown) [compound 9, 4-[3-(5-Fluoro-1H-indol-3-yl)piperidin-1-yl]-7-morpholin-4 ylquinazoline]
  IC50: 500 to 1000 nM

## c1nc(N2CCCC(CC3CCCCC3)C2)c2ccc(N3CCOCC3)cc2n1 (stereo not shown) [compound 10]
  IC50: 500 to 1000 nM

## c1ccc(C[C@@H]2CCCN(c3ncnc4cc(N5CCOCC5)ccc34)C2)cc1 [compound 11, 4-((S)-3-Benzyl-piperidin-1-yl)-7-morpholin-4-yl-quinazoline]
  IC50: 100 to 500 nM

## CC1CCCN(c2ncnc3cc(N4CCOCC4)ccc23)C1 (stereo not shown) [compound 12, 4-(3-Methylpiperidin-1-yl)-7-morpholin-4-ylquinazoline]
  IC50: 100 to 500 nM

## c1ccn(CC2CCCN(c3ncnc4cc(N5CCOCC5)ccc34)C2)c1 (stereo not shown) [compound 13, 7-Morpholin-4-yl-4-(3-pyrrol-1-ylmethyl-piperidin-1-yl)-quinazoline]
  IC50: < 100 nM

## c1ccc2sc(C3CCCN(c4ncnc5cc(N6CCOCC6)ccc45)C3)nc2c1 (stereo not shown) [compound 14, 4-(3-Benzothiazol-2-ylpiperidin-1-yl)-7-morpholin-4-yl-quinazoline]
  IC50: < 100 nM

## OC1(c2ccccc2)CCCN(c2ncnc3cc(N4CCOCC4)ccc23)C1 (stereo not shown) [compound 15, 1-(7-Morpholin-4-yl-quinazoline-4-yl)-3-phenylpiperidin-3-ol]
  IC50: 500 to 1000 nM

## O=C(c1ccc(F)cc1)C1CCCN(c2ncnc3cc(N4CCOCC4)ccc23)C1 (stereo not shown) [compound 16, (4-Fluorophenyl)-[1-(7-morpholin-4-yl-quinazoline-4-yl)-piperidin-3-yl]-methanone]
  IC50: 100 to 500 nM

## NC(=O)C1CCCN(c2ncnc3cc(N4CCOCC4)ccc23)C1 (stereo not shown) [compound 17, 1-(7-Morpholin-4-yl-quinazoline-4-yl)-piperidin-3-carboxamide]
  IC50: 500 to 1000 nM

## CCOCC1CCCN(c2ncnc3cc(N4CCOCC4)ccc23)C1 (stereo not shown) [compound 18, 4-(3-Ethoxymethyl-piperidin-1-yl)-7-morpholin-4-yl-quinazoline]
  IC50: 100 to 500 nM

## Cc1noc(C2CCCN(c3ncnc4cc(N5CCOCC5)ccc34)C2)n1 (stereo not shown) [compound 19, 4-[3-(3-Methyl-1,2,4-oxadiazol-5-yl)-piperidin-1-yl]-7-morpholin-4-yl-quinazoline]
  IC50: 500 to 1000 nM

## O=C(C1CCCN(c2ncnc3cc(N4CCOCC4)ccc23)C1)N1CCCCC1 (stereo not shown) [compound 20, [1-(7-Morpholin-4-yl-quinazoline-4-yl)-piperidin-3-yl]-piperidin-1-yl-methanone]
  IC50: 100 to 500 nM

## c1nc(N2CCCC(CN3CCOCC3)C2)c2ccc(N3CCOCC3)cc2n1 (stereo not shown) [compound 21, 7-Morpholin-4-yl-4-(3-morpholin-4-ylmethylpiperidin-1-yl)quinazoline]
  IC50: 500 to 1000 nM

## COc1cccc(C2CCCN(c3ncnc4cc(N5CCOCC5)ccc34)C2)c1 (stereo not shown) [compound 22, 4-[3-(3-Methoxy-phenyl)piperidin-1-yl]-7-morpholin-4-yl-quinazoline]
  IC50: < 100 nM

## c1cn(CC2CCCN(c3ncnc4cc(N5CCOCC5)ccc34)C2)cn1 (stereo not shown) [compound 23]
  IC50: < 100 nM

## c1ccc2[nH]c(C3CCCN(c4ncnc5cc(N6CCOCC6)ccc45)C3)nc2c1 (stereo not shown) [compound 24, 4-[3-(1H-Benzo-imidazol-2-yl)-piperidin-1-yl]-7-morpholin-4-yl-quinazoline]
  IC50: 500 to 1000 nM

## Clc1nc(N2CCCC(Cn3ccnc3)C2)c2ccc(N3CCOCC3)cc2n1 (stereo not shown) [compound 25, 2-Chloro-4-(3-imidazol-1-ylmethyl-piperidin-1-yl)-7-morpholin-4-yl-quinazoline]
  IC50: < 100 nM

## c1ccc2oc(C3CCCN(c4ncnc5cc(N6CCOCC6)ccc45)C3)nc2c1 (stereo not shown) [compound 26, 4-(3-Benzoxazol-2-ylpiperidin-1-yl)-7-morpholin-4-yl-quinazoline]
  IC50: 100 to 500 nM

## Cc1cccc(C2CCCN(c3ncnc4cc(N5CCOCC5)ccc34)C2)c1 (stereo not shown) [compound 27, 7-Morpholin-4-yl-4-(3-m-tolylpiperidin-1-yl)quinazoline]
  IC50: < 100 nM

## FC(F)(F)c1cccc(C2CCCN(c3ncnc4cc(N5CCOCC5)ccc34)C2)c1 (stereo not shown) [compound 28, 7-Morpholin-4-yl-4-[3-(3-trifluoromethyl-phenyl)piperidin-1-yl]quinazoline]
  IC50: 100 to 500 nM

## Cn1ccnc1CC1CCCN(c2ncnc3cc(N4CCOCC4)ccc23)C1 (stereo not shown) [compound 29, 4-[3-(1-Methyl-1H-imidazol-2-ylmethyl)-piperidin-1-yl]-7-morpholin-4-yl-quinazoline]
  IC50: < 100 nM

## Clc1nc(N2CCCC(Cn3cccc3)C2)c2ccc(N3CCOCC3)cc2n1 (stereo not shown) [compound 30, 2-Chloro-7-morpholin-4-yl-4-(3-pyrrol-1-ylmethyl-piperidin-1-yl)-quinazoline]
  IC50: < 100 nM

## c1cnc(CC2CCCN(c3ncnc4cc(N5CCOCC5)ccc34)C2)nc1 (stereo not shown) [compound 31]
  IC50: < 100 nM

## c1csc(CC2CCCN(c3ncnc4cc(N5CCOCC5)ccc34)C2)n1 (stereo not shown) [compound 32]
  IC50: < 100 nM

## c1csc(CC2CCCN(c3ncnc4cc(N5CCOCC5)ccc34)C2)c1 (stereo not shown) [compound 33]
  IC50: < 100 nM

## Cc1nc(N2CCCCC2)c2ccc(N3CCOCC3)cc2n1 [compound 34, 2-Methyl-7-morpholin-4-yl-4-piperidin-1-yl-quinazoline]
  IC50: > 1000 nM

## c1ccc2sc(CC3CCCN(c4ncnc5cc(N6CCOCC6)ccc45)C3)cc2c1 (stereo not shown) [compound 35, 4-(3-Benzo[b]-thiophen-2-ylmethyl-piperidin-1-yl)-7-morpholin-4-yl-quinazoline]
  IC50: 100 to 500 nM

## Clc1nc(N2CCCC(Cc3nccs3)C2)c2ccc(N3CCOCC3)cc2n1 (stereo not shown) [compound 36, 2-Chloro-7-morpholin-4-yl-4-(3-thiazol-2-ylmethyl-piperidin-1-yl)-quinazoline]
  IC50: < 100 nM

## C1=C(c2cccs2)CN(c2ncnc3cc(N4CCOCC4)ccc23)CC1 [compound 37, 7-Morpholin-4-yl-4-(5-thiophen-2-yl-3,6-dihydro-2H-pyridin-1-yl)quinazoline]
  IC50: 100 to 500 nM

## COc1cccc(C(O)C2CCCN(c3ncnc4cc(N5CCOCC5)ccc34)C2)c1 (stereo not shown) [compound 38, (3-Methoxyphenyl)-[1-(7-morpholin-4-yl-quinazolin-4-yl)-piperidin-3-yl]-methanol]
  IC50: < 100 nM

## COc1nc(N2CCCCC2)c2ccc(N3CCOCC3)cc2n1 [compound 39, 2-Methoxy-7-morpholin-4-yl-4-piperidin-1-yl-quinazoline]
  IC50: > 1000 nM

## c1csc(C2CCCN(c3ncnc4cc(N5CCOCC5)ccc34)C2)c1 (stereo not shown) [compound 40, 7-Morpholin-4-yl-4-(3-thiophen-2-yl-piperidin-1-yl)-quinazoline]
  IC50: < 100 nM

## COc1cccc(CC2CCCN(c3ncnc4cc(N5CCOCC5)ccc34)C2)c1 (stereo not shown) [compound 41, 4-[3-(3-Methoxy-benzyl)piperidin-1-yl]-7-morpholin-4-yl-quinazoline]
  IC50: < 100 nM

## COc1ccc(CC2CCCN(c3ncnc4cc(N5CCOCC5)ccc34)C2)cc1OC (stereo not shown) [compound 42, 4[3-(3,4-Dimethoxy-benzyl)piperidin-1-yl]-7-morpholin-4-yl-quinazoline]
  IC50: 100 to 500 nM

## c1ccc2sc(CC3CCCN(c4ncnc5cc(N6CCOCC6)ccc45)C3)nc2c1 (stereo not shown) [compound 43, 4-(3-Benzothiazol-2-ylmethylpiperidin-1-yl)-7-morpholin-4-yl-quinazoline]
  IC50: 100 to 500 nM

## c1nc(N2CCCC(Cc3ccsc3)C2)c2ccc(N3CCOCC3)cc2n1 (stereo not shown) [compound 44]
  IC50: < 100 nM

## OC(c1ccsc1)C1CCCN(c2ncnc3cc(N4CCOCC4)ccc23)C1 (stereo not shown) [compound 45, [1-(7-Morpholin-4-yl-quinazolin-4-yl)-piperidin-3-yl]-thiophen-3-yl-methanol]
  IC50: < 100 nM

## OC(c1nccs1)C1CCCN(c2ncnc3cc(N4CCOCC4)ccc23)C1 (stereo not shown) [compound 46, [1-(7-Morpholin-4-yl-quinazolin-4-yl)-piperidin-3-yl]-thiazol-2-yl-methanol]
  IC50: < 100 nM
